# Reference: PubChem BioAssay (NCI)
#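 Cultured in 96-well plates, cells were exposed to test compound for 48 hours across five concentrations. GI50 = concentration required for 50% inhibition of growth. Definition used: TGI = concentration required for complete inhibition of growth.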
# What was measured:
# Experiment in all cases: NCI anticancer screen, dose series, 48 h
# [1] = system: SNB-75 CNS
# [2] = system: NCI/ADR-RES ovarian
# [3] = system: SK-MEL-28 melanoma
# [4] = system: SF-268 CNS
# [5] = system: T-47D breast
# [6] = system: UO-31 renal
# [7] = system: MDA-MB-231 breast
# [8] = system: UACC-257 melanoma
# [9] = system: NCI-H23 lung
# [10] = system: MOLT-4 leukemia
# [11] = system: SK-MEL-2 melanoma
# [12] = system: RPMI-8226 leukemia
# [13] = system: SW-620 colon
# [14] = system: HOP-92 NSCLC
# [15] = system: HL-60(TB) leukemia
# [16] = system: A549 NSCLC
# [17] = system: SF-295 CNS
# [18] = system: OVCAR-5 ovarian
# [19] = system: UACC-62 melanoma
# [20] = system: CCRF-CEM leukemia
# [21] = system: HCT-15 colon
# [22] = system: NCI-H522 lung
# [23] = system: SK-MEL-5 melanoma
# [24] = system: OVCAR-4 ovarian
# [25] = system: CAKI-1 renal
# [26] = system: NCI-H460 lung
# [27] = system: EKVX NSCLC
# [28] = system: HS 578T breast
# [29] = system: NCI-H226 lung
# [30] = system: COLO 205 colon
# [31] = system: BT-549 breast
# [32] = system: RXF 393 renal
# [33] = system: 786-0 renal
# [34] = system: U251 CNS
# [35] = system: K-562 leukemia
# [36] = system: OVCAR-8 ovarian
# [37] = system: HCT-116 colon
# [38] = system: SN12C renal
# [39] = system: A498 renal
# [40] = system: SF-539 CNS
# [41] = system: M14 melanoma
# [42] = system: OVCAR-3 ovarian
# [43] = system: KM12 colon
# [44] = system: HOP-62 NSCLC
# [45] = system: TK-10 renal
# [46] = system: MALME-3M melanoma
# [47] = system: SNB-19 CNS
# [48] = system: HT29 colon
# [49] = system: MDA-MB-435
# [50] = system: ACHN renal
# [51] = system: IGROV1 ovarian
# [52] = system: DU-145 prostate
# [53] = system: MCF7 breast
# [54] = system: SK-OV-3 ovarian
# [55] = system: LOX IMVI melanoma
# [56] = system: PC-3 prostate
# [57] = system: HCC-2998 colon
smiles,measurement,setting,value
CN(C)c1nc2ccccc2c2c1c1c(n2Cc2ccccc2)-c2ccccc2C1=O,GI50,[1],54.2 µM
same,TGI,[1],> 100 µM
same,GI50,[2],> 100 µM
same,TGI,[2],> 100 µM
same,GI50,[3],> 100 µM
same,TGI,[3],> 100 µM
same,GI50,[4],> 100 µM
same,TGI,[4],> 100 µM
same,GI50,[5],55.6 µM
same,TGI,[5],> 100 µM
same,GI50,[6],> 100 µM
same,TGI,[6],> 100 µM
same,GI50,[7],> 100 µM
same,TGI,[7],> 100 µM
same,GI50,[8],> 100 µM
same,TGI,[8],> 100 µM
same,GI50,[9],> 100 µM
same,TGI,[9],> 100 µM
same,GI50,[10],25.5 µM
same,TGI,[10],> 100 µM
same,GI50,[11],> 100 µM
same,TGI,[11],> 100 µM
same,GI50,[12],> 100 µM
same,TGI,[12],> 100 µM
same,GI50,[13],> 100 µM
same,TGI,[13],> 100 µM
same,GI50,[14],13 µM
same,TGI,[14],> 100 µM
same,GI50,[15],91.6 µM
same,TGI,[15],> 100 µM
same,GI50,[16],> 100 µM
same,TGI,[16],> 100 µM
same,GI50,[17],> 100 µM
same,TGI,[17],> 100 µM
same,GI50,[18],> 100 µM
same,TGI,[18],> 100 µM
same,GI50,[19],> 100 µM
same,TGI,[19],> 100 µM
same,GI50,[20],62.7 µM
same,TGI,[20],> 100 µM
same,GI50,[21],> 100 µM
same,TGI,[21],> 100 µM
same,GI50,[22],> 100 µM
same,TGI,[22],> 100 µM
same,GI50,[23],39.1 µM
same,TGI,[23],> 100 µM
same,GI50,[24],31.3 µM
same,TGI,[24],> 100 µM
same,GI50,[25],> 100 µM
same,TGI,[25],> 100 µM
same,GI50,[26],> 100 µM
same,TGI,[26],> 100 µM
same,GI50,[27],> 100 µM
same,TGI,[27],> 100 µM
same,TGI,[28],75.9 µM
same,GI50,[29],> 100 µM
same,TGI,[29],> 100 µM
same,GI50,[30],> 100 µM
same,TGI,[30],> 100 µM
same,GI50,[31],> 100 µM
same,TGI,[31],> 100 µM
same,GI50,[32],> 100 µM
same,TGI,[32],> 100 µM
same,GI50,[33],> 100 µM
same,TGI,[33],> 100 µM
same,GI50,[34],> 100 µM
same,TGI,[34],> 100 µM
same,GI50,[35],> 100 µM
same,TGI,[35],> 100 µM
same,GI50,[36],> 100 µM
same,TGI,[36],> 100 µM
same,GI50,[37],8.79 µM
same,TGI,[37],> 100 µM
same,GI50,[38],> 100 µM
same,TGI,[38],> 100 µM
same,GI50,[39],> 100 µM
same,TGI,[39],> 100 µM
same,GI50,[40],> 100 µM
same,TGI,[40],> 100 µM
same,GI50,[41],> 100 µM
same,TGI,[41],> 100 µM
same,GI50,[42],> 100 µM
same,TGI,[42],> 100 µM
same,GI50,[43],> 100 µM
same,TGI,[43],> 100 µM
same,GI50,[44],> 100 µM
same,TGI,[44],> 100 µM
same,GI50,[45],> 100 µM
same,TGI,[45],> 100 µM
same,GI50,[46],> 100 µM
same,TGI,[46],> 100 µM
same,GI50,[47],> 100 µM
same,TGI,[47],> 100 µM
same,GI50,[48],12.2 µM
same,TGI,[48],> 100 µM
same,GI50,[49],> 100 µM
same,TGI,[49],> 100 µM
same,GI50,[50],> 100 µM
same,TGI,[50],> 100 µM
same,GI50,[51],27.2 µM
same,TGI,[51],> 100 µM
same,GI50,[52],> 100 µM
same,TGI,[52],> 100 µM
same,GI50,[53],71.4 µM
same,TGI,[53],> 100 µM
same,GI50,[54],> 100 µM
same,TGI,[54],> 100 µM
same,GI50,[55],> 100 µM
same,TGI,[55],> 100 µM
c1ccc(-c2nc(N3CCOCC3)c3c4c(sc3n2)CCCCCC4)nc1,GI50,[1],7.1 µM
same,TGI,[1],20.8 µM
same,GI50,[2],0.836 µM
same,TGI,[2],18.2 µM
same,GI50,[3],11 µM
same,TGI,[3],23.2 µM
same,GI50,[4],8.82 µM
same,TGI,[4],22.6 µM
same,GI50,[5],4.46 µM
same,TGI,[5],22.7 µM
same,GI50,[6],1.17 µM
same,TGI,[6],10.3 µM
same,GI50,[7],7.43 µM
same,TGI,[7],25.9 µM
same,GI50,[8],10.9 µM
same,TGI,[8],23.2 µM
same,GI50,[9],5.99 µM
same,TGI,[9],26.5 µM
same,GI50,[10],3.77 µM
same,TGI,[10],17 µM
same,GI50,[11],7.9 µM
same,TGI,[11],21.7 µM
same,GI50,[12],2.12 µM
same,TGI,[12],9.67 µM
same,GI50,[13],8.87 µM
same,TGI,[13],21.9 µM
same,GI50,[14],0.622 µM
same,TGI,[14],5.05 µM
same,GI50,[15],4.49 µM
same,TGI,[15],22.8 µM
same,GI50,[16],3.57 µM
same,TGI,[16],15.9 µM
same,GI50,[17],3.39 µM
same,TGI,[17],15.8 µM
same,GI50,[18],10.3 µM
same,TGI,[18],26.5 µM
same,GI50,[19],3.44 µM
same,TGI,[19],14.3 µM
same,GI50,[20],3.59 µM
same,TGI,[20],18.9 µM
same,GI50,[21],3.43 µM
same,TGI,[21],18.6 µM
same,GI50,[22],5.85 µM
same,TGI,[22],20.2 µM
same,GI50,[23],1.99 µM
same,TGI,[23],9.45 µM
same,GI50,[24],4.85 µM
same,TGI,[24],80.3 µM
same,GI50,[25],2.29 µM
same,TGI,[25],16.1 µM
same,GI50,[26],3.68 µM
same,TGI,[26],16 µM
same,GI50,[28],3.37 µM
same,TGI,[28],42.3 µM
same,GI50,[29],5 µM
same,TGI,[29],24 µM
same,GI50,[30],9.4 µM
same,TGI,[30],22.3 µM
same,GI50,[31],4.38 µM
same,TGI,[31],16.7 µM
same,GI50,[32],8.38 µM
same,TGI,[32],25.5 µM
same,GI50,[33],11.7 µM
same,TGI,[33],32.8 µM
same,GI50,[34],4.38 µM
same,TGI,[34],17 µM
same,GI50,[35],3.47 µM
same,TGI,[35],23.7 µM
same,GI50,[36],5.08 µM
same,TGI,[36],30.5 µM
same,GI50,[37],3.69 µM
same,TGI,[37],15.3 µM
same,GI50,[38],5 µM
same,TGI,[38],29.4 µM
same,GI50,[39],1.65 µM
same,TGI,[39],8.63 µM
same,GI50,[40],13 µM
same,TGI,[40],26.7 µM
same,GI50,[41],4.17 µM
same,TGI,[41],16.5 µM
same,GI50,[42],4.6 µM
same,TGI,[42],16.2 µM
same,GI50,[56],2.69 µM
same,TGI,[56],11.8 µM
same,GI50,[43],4.28 µM
same,TGI,[43],16.1 µM
same,GI50,[44],9.53 µM
same,TGI,[44],24.6 µM
same,GI50,[45],9.28 µM
same,TGI,[45],25.5 µM
same,GI50,[46],3.32 µM
same,TGI,[46],14.9 µM
same,GI50,[47],8.36 µM
same,TGI,[47],21.6 µM
same,GI50,[48],6.05 µM
same,TGI,[48],22.7 µM
same,GI50,[49],4.82 µM
same,TGI,[49],17.7 µM
same,GI50,[50],4.49 µM
same,TGI,[50],16.6 µM
same,GI50,[51],3.16 µM
same,TGI,[51],9.95 µM
same,GI50,[52],6.93 µM
same,TGI,[52],19.6 µM
same,GI50,[53],3.04 µM
same,TGI,[53],12.8 µM
same,GI50,[54],9.25 µM
same,TGI,[54],22.5 µM
same,GI50,[57],6.99 µM
same,TGI,[57],19.8 µM
same,GI50,[55],5.24 µM
same,TGI,[55],20.9 µM
